Molecular target: T1, FdC (Rhodobacter capsulatus, UniProt D5ARY7)
T1 construct: gene fdxC; full length, N-terminal Met replaced by Strep-tag (MAWSHPQFEK), tag kept; E. coli BL21-AI; monomer
Assay: X-ray crystallography; UV-Vis; EPR
Type: binding
Conditions: 1.7 Å; anaerobic crystallisation, pH 8.0; ligands C38, C43, C46, C81

T1 sequence (D5ARY7 2-95): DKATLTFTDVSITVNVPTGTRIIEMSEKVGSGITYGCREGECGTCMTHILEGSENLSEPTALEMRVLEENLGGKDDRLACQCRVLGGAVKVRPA

## [S]1[Fe][S][Fe]1 [[Fe2S2]-cluster]
  X-ray crystallography; UV-Vis; EPR: The globular and monomeric FdC coordinates a [Fe2S2]‐cluster

Source: PMC12223475, “Two Key Ferredoxins for Nitrogen Fixation Have Different Specificities and Biophysical Properties” (Chemistry (Weinheim an Der Bergstrasse, Germany), 2025)
